Experimental data reported in patent US20230312550A1, “N-(2-(4-CYANOTHIAZOLIDIN-3-YL)-2-OXOETHYL)-QUINOLINE-4-CARBOXAMIDES” (AstraZeneca AB, priority 2020, published 2023).
≈ marks a conversion by molar mass, not a printed value.

Experiments:
[1] = target: human Fibroblast activation protein alpha (hFAP) (Homo sapiens (Human), UniProt Q12884); assay: hFAP inhibition assay (tight binders); format: biochemical; details: Ala-Pro-AMC 20 μM, n = 1 or geometric mean n = 2-6; note: hFAP 2.4 pM
Protocol: The plates were read on a PHERAstar® reader with excitation 340 nm and emission 460 nm. Data were analyzed in Genedata Screener®. IC50 values were determined by plotting % inhibition versus log compound concentration and using a one site dose response model.

[2] = target: hFAP (M39-A757) (Homo sapiens (Human), UniProt Q12884); assay: hFAP binding assay (surface plasmon resonance); details: SPR, 20° C.; for hFAP Binding assay k(off) / hFAP Binding assay k(on): single cycle kinetics; for Kd: n = 1 or geometric mean n = 2-4
Chain of hFAP (M39-A757) (Q12884 39-757): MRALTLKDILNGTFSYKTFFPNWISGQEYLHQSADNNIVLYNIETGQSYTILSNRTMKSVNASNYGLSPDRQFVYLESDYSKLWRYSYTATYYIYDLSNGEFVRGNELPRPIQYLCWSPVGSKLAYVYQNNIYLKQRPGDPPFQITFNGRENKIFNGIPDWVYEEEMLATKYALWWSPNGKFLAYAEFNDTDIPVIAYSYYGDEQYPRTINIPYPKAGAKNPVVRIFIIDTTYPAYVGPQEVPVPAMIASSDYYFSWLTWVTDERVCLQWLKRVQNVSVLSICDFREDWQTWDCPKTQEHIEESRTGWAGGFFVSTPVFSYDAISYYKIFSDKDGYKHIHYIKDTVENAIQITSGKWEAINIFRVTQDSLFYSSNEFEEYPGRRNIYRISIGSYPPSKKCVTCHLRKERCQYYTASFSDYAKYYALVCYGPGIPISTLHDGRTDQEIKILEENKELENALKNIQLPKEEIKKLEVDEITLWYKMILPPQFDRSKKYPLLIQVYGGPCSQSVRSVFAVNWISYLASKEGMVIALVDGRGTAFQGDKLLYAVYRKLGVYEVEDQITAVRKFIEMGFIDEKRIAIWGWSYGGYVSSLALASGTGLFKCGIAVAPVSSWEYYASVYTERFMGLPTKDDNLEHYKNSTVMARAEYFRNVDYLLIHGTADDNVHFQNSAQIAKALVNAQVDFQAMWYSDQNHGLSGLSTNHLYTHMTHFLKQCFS

[3] = target: T1, FAP (Homo sapiens (Human), UniProt Q12884); assay: FAP plasma inhibition assay, human plasma; format: biochemical; details: human plasma diluted 1:40, Ala-Pro-AMC 75 μM
Protocol: (§1) This assay was adapted from the method described in Example 237 for detection of FAP target engagement enzyme activity in plasma. Plasma (anticoagulant K2EDTA) was used as the enzyme source: Human plasma (Pooled from AZ Biobank), Mouse plasma (AZ AST Biobank), and Cynomolgus plasma (BioIVT, #NHP00PLK2FNN, lot CYN222895). 384-Well black fluotrack PS plates (Greiner 781076) were used. 20 μL diluted plasma (Cynomolgus and Human plasma dilution 1:40, Mouse plasma dilution 1:67) in buffer (PBS, 0.1% BSA) was added to 0.6 μL compounds (in DMSO). Compounds were tested using 10 CR, 3 fold dilution series from 500 nM FAC. Two replicates for each assay point were run on the same plate. A fluorescence blank read was taken before substrate addition. […] Plates were incubated for 40 min at rt in the dark. […] IC50 values were determined by plotting % inhibition versus log compound concentration.
Target sequence in this assay (Q12884 24-760): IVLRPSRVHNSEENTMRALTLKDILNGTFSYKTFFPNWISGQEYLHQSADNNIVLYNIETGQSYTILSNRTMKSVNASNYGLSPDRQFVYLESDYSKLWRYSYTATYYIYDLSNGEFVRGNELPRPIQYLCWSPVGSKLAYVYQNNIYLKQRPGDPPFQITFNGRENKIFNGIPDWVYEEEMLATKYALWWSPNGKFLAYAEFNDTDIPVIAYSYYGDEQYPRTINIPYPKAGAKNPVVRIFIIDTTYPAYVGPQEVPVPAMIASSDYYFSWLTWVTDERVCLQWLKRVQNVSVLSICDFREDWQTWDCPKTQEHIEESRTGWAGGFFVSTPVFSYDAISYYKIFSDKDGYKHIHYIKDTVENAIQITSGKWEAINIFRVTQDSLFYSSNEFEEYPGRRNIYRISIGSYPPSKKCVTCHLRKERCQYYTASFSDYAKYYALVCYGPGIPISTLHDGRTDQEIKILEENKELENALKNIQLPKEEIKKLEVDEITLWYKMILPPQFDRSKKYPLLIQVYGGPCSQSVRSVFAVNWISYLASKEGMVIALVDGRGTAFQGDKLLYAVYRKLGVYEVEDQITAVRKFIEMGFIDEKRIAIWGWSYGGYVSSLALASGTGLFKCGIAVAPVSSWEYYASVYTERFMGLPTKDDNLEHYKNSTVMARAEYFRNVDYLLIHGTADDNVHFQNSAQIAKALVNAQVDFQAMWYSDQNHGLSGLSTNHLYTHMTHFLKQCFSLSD

[4] = target: FAP (Mus musculus (Mouse), UniProt P97321); assay: FAP plasma inhibition assay, mouse plasma; format: biochemical; details: mouse plasma diluted 1:67, Ala-Pro-AMC 75 μM
Chain of FAP (Mus musculus (Mouse), UniProt P97321) (P97321 24-761): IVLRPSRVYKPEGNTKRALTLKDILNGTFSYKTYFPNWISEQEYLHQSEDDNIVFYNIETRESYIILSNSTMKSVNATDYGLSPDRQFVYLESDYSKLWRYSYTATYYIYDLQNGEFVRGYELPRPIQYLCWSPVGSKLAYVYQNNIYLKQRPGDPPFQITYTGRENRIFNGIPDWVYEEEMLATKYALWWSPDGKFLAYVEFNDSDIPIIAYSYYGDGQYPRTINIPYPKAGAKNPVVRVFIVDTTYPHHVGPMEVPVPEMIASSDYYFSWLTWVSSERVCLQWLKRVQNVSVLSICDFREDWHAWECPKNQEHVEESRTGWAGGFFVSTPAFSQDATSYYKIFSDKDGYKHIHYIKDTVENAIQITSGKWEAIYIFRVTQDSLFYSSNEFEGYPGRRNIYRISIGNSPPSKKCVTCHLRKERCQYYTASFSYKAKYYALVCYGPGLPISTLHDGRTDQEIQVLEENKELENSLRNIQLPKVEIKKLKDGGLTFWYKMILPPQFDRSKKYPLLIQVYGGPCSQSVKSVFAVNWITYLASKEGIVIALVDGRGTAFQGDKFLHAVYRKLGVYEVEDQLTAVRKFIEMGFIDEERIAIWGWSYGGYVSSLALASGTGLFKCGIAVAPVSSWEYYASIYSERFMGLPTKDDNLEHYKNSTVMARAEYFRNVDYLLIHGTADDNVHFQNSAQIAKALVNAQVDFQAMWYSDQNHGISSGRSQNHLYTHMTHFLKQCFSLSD
Protocol: as §1

[5] = target: Prolyl endopeptidase, Prolyl Oligopeptidase (hPREP) (Homo sapiens (Human), UniProt P48147); assay: hPrep inhibition assay; format: biochemical; details: hPREP 0.6 nM, Z-Gly-Pro-amino-methylcoumarin 50 μM; read-out: PREP IC50
Chain of Prolyl endopeptidase, Prolyl Oligopeptidase (hPREP) (P48147 whole entry): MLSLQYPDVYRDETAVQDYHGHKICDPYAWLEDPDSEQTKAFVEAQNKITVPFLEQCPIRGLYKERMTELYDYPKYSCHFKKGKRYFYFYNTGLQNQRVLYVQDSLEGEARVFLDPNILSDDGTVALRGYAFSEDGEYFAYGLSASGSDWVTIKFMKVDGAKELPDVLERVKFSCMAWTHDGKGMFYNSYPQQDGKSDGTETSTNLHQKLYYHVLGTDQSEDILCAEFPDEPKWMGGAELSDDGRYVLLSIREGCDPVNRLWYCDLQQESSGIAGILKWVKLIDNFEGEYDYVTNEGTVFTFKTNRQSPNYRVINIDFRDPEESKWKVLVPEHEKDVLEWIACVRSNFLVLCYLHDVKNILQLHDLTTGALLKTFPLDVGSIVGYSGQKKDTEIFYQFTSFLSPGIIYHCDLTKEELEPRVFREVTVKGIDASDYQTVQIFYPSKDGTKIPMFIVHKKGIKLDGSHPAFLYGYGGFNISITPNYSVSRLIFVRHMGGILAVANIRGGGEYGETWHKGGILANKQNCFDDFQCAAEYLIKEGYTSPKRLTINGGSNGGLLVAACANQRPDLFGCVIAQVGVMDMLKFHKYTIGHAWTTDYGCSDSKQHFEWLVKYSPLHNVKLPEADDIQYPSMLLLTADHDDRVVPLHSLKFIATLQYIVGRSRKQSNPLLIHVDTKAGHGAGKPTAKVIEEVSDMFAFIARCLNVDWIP
Method in brief: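 Fluorogenic read-out (340 nm excitation, 460 nm emission) after 20 min at rt, using 50 μM final Z-Gly-Pro-aminomethylcoumarin and 0.6 nM final enzyme, following 15 min compound preincubation. Buffer pH 7.5 with glutathione and Triton X-100. IC50 via one-site model on % inhibition vs log concentration.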

[6] = Metabolic stability in human hepatocytes (hHep); format: in vitro ADME; details: n = 1 or geometric mean of n = 2
[7] = Kinetic solubility; details: kinetic from dmso stock, Solubility, kinetic solubility; n = 1 or average of n = 2-3
Protocol: Kinetic solubility was measured as described in Comput Aided Mol Des 2015, 29, 795.

[8] = Caco-2 cell permeability; details: human
Protocol: Caco-2 cell permeability was measured as described in Mol Pharm 2017, 14, 1601.

[9] = Metabolic stability in rat hepatocytes (rHep); details: n = 1 or geometric mean of n = 2-3
[10] = Metabolic stability in human liver microsomes (HLM); details: human, HLM CLint, n = 1 or average of n = 2-3
Protocol: Metabolic stability in HLM was measured as described in J Comput Aided Mol Des 2015, 29, 795.

[11] = target: T1, FAP; assay: hFAP inhibition assay; format: biochemical; details: hFAP […], Ala-Pro-AMC 20 μM; n = 1 or geometric mean n = 2-3
Method in brief: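 Compounds (10-point, 3-fold dilutions from 50 μM top) were preincubated 15 min at rt in the dark with 0.48 nM hFAP in pH 7.4 Tris/NaCl/Chaps buffer. Reaction was started with substrate (40 μM solution) and ran 30 min at rt. Read by fluorescence (340/460 nm); IC50 from one-site fit.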
Target sequence in this assay (Q12884 38-760): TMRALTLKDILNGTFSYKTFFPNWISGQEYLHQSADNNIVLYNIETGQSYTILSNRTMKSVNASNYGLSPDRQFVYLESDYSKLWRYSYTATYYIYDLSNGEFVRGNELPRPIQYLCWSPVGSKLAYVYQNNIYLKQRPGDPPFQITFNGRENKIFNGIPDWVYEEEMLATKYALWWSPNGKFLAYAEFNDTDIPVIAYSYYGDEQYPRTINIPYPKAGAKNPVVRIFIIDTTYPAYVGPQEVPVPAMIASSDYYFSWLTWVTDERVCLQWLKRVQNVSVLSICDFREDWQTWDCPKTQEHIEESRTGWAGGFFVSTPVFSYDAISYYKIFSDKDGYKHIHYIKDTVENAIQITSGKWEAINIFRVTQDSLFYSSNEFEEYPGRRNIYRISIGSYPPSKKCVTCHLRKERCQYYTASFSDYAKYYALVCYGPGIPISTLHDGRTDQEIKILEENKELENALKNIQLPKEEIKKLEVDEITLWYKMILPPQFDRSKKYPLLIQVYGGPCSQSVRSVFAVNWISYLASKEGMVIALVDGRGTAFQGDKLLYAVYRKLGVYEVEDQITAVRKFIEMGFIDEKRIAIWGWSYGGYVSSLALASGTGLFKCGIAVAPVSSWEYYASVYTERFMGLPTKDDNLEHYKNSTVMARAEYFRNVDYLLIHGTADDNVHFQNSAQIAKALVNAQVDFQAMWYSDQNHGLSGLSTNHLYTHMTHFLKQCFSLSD

Chain of human Fibroblast activation protein alpha (hFAP) (Q12884 38-760): as above

Compound	IC50 [1] [nM]	hFAP Binding assay k(off) [2] [s⁻¹]	hFAP Binding assay k(on) [2] [M⁻¹ s⁻¹]	Kd [2] [nM]	IC50 [3] [nM]	IC50 [4] [nM]	IC50 [5] [nM]	hHep CLint [6] [μL/min/1E6]	solubility [7] [µM]	Papp A→B [8] [×10⁻⁶ cm/s]	Papp B→A [8] [×10⁻⁶ cm/s]	efflux ratio [8]	rHep CLint [9] [μL/min/1E6]	microsomal CLint [10] [µL/min/mg]	IC50 [11] [nM]	Papp [8] [×10⁻⁶ cm/s]
N#C[C@@H]1CSCN1C(=O)CNC(=O)c1ccnc2ccc(N3CC(F)(CF)C3)cc12 [Example 157, (R)—N-(2-(4-Cyanothiazolidin-3-yl)-2-oxoethyl)-6-(3-fluoro-3-(fluoromethyl)azetidin-1-yl)quinoline-4-carboxamide]	0.37	0.00012	1900000	0.065	0.3	0.6	1200	<1	62 (≈ 26.8 µg/mL)	2	29	15	<1	7.3	–	–
C[C@H]1CCCN(c2ccc3nccc(C(=O)NCC(=O)N4CSC[C@H]4C#N)c3c2)C1=O (single isomer, unassigned) [Example 203, N-(2-((R)-4-Cyanothiazolidin-3-yl)-2-oxoethyl)-6-((R*)-3-methyl-2-oxopiperidin-1-yl)quinoline-4-carboxamide]	0.26	0.000063	440000	0.15	0.4	0.5	3500	–	540 (≈ 236 µg/mL)	0.4	8	20	2.9	12	–	–
CC1(C)CN(c2ccc3nccc(C(=O)NCC(=O)N4CSC[C@H]4C#N)c3c2)CCO1 [Example 88, (R)—N-(2-(4-Cyanothiazolidin-3-yl)-2-oxoethyl)-6-(2,2-dimethyl-morpholino)quinoline-4-carboxamide]	0.074	0.00034	4200000	0.082	0.2	0.3	1200	<1	> 980	1.3	29	23	8.6	22	0.31	13
N#C[C@@H]1CSCN1C(=O)CNC(=O)c1ccnc2ccc(N3CCO[C@H](C(F)(F)F)C3)cc12 [Example 74, N-(2-((R)-4-Cyanothiazolidin-3-yl)-2-oxoethyl)-6-((S)-2-(trifluoromethyl)-morpholino)quinoline-4-carboxamide]	0.094	0.00016	1100000	0.14	0.2	0.3	2300	<1	180 (≈ 86.3 µg/mL)	1.8	53	29	13	28	–	–
Cn1nccc1-c1ccc2nccc(C(=O)NCC(=O)N3CSC[C@H]3C#N)c2c1 [Example 174, (R)—N-(2-(4-Cyanothiazolidin-3-yl)-2-oxoethyl)-6-(1-methyl-1H-pyrazol-5-yl)quinoline-4-carboxamide]	0.26	0.00024	1900000	0.13	0.2	0.4	87	–	800 (≈ 325 µg/mL)	0.54	25	46	7.2	12	0.44	–
N#C[C@@H]1CSCN1C(=O)CNC(=O)c1c(F)cnc2ccc(N3CCOCC3)cc12 [Example 2, (R)—N-(2-(4-Cyanothiazolidin-3-yl)-2-oxoethyl)-3-fluoro-6-morpholino-quinoline-4-carboxamide]	0.52	0.0038	410000	9.5	8.1	7.3	1700	<1	83 (≈ 35.6 µg/mL)	0.98	31	32	3	22	–	23
C[C@@H]1CCCN(c2ccc3nccc(C(=O)NCC(=O)N4CSC[C@H]4C#N)c3c2)C1=O (single isomer, unassigned) [Example 204, N-(2-((R)-4-Cyanothiazolidin-3-yl)-2-oxoethyl)-6-((R*)-3-methyl-2-oxopiperidin-1-yl)quinoline-4-carboxamide]	0.067	0.000058	850000	0.068	0.2	0.3	920	–	480 (≈ 210 µg/mL)	0.44	8.5	19	1.8	8	–	–
CC(F)(F)C1CN(c2ccc3nccc(C(=O)NCC(=O)N4CSC[C@H]4C#N)c3c2)C1 [Example 147, (R)—N-(2-(4-Cyanothiazolidin-3-yl)-2-oxoethyl)-6-(3-(1,1-difluoroethyl)-azetidin-1-yl)quinoline-4-carboxamide]	0.067	0.00012	2800000	0.045	0.1	0.2	570	–	40 (≈ 17.8 µg/mL)	2.7	40	15	2.9	17	–	–
COc1ccc(-c2ccc3nccc(C(=O)NCC(=O)N4CSC[C@H]4C#N)c3c2)cn1 [Example 178, (R)—N-(2-(4-Cyanothiazolidin-3-yl)-2-oxoethyl)-6-(6-methoxypyridin-3-yl)quinoline-4-carboxamide]	0.042	0.00017	3100000	0.053	0.1	0.1	120	–	6 (≈ 2.6 µg/mL)	–	–	–	7.2	16	0.2	–
CN1CCC(F)(c2ccc3nccc(C(=O)NCC(=O)N4CSC[C@H]4C#N)c3c2)CC1 [Example 195, (R)—N-(2-(4-Cyanothiazolidin-3-yl)-2-oxoethyl)-6-(4-fluoro-1-methyl-piperidin-4-yl)quinoline-4-carboxamide]	0.39	0.000061	190000	0.33	0.9	1.4	1200	–	830 (≈ 366 µg/mL)	0.4	4.8	12	1.8	< 3	–	–
CC1(C)OCCN(c2ccc3nccc(C(=O)NCC(=O)N4CSC[C@H]4C#N)c3c2)C1=O [Example 16, (R)—N-(2-(4-Cyanothiazolidin-3-yl)-2-oxoethyl)-6-(2,2-dimethyl-3-oxomorpholino)quinoline-4-carboxamide]	0.11	0.000041	740000	0.054	0.2	0.4	1600	–	170 (≈ 77.1 µg/mL)	0.16	4.2	26	<1	< 3	–	–
